“And” between values parts separate entries of the source, which are not always exact repeats. Identical values can stand only once. Like-named read-outs stand apart in the source and are kept apart here.
Tests used:
[1] = extensive presystemic metabolism; ref Kane et al. 2000; cited from earlier work
[2] = in vivo; details: male, Wistar, rat, po, 15 mg/kg
[3] = Metabolic stability of diltiazem in rat liver S9 fraction; assay type: in vitro ADME
[4] = Transport of diltiazem mucosal to serosal, normal sac method, rat duodenum; assay type: in vitro ADME; details: rifampicin pretreatment
[5] = with GFJ; cited from earlier work
[6] = cited from earlier work
[7] = system: P-gp; details: chronic administration of GFJ; ref Varma 2005; cited from earlier work
[8] = multiple dose GFJ, listed as DTZ

COc1ccc([C@@H]2Sc3ccccc3N(CCN(C)C)C(=O)[C@@H]2OC(C)=O)cc1 [Diltiazem, diltiazem]
T1/2 (diltiazem 15 mg/kg p.o with single dose GFJ): 31.2 min
AUC0–24 (AUC0–t), % inhibition (decrease) compared to control (multiple dose GFJ): 43.22%
Cmax, % inhibition (decrease) compared to control (multiple dose GFJ): 66.09%
T1/2, % change compared to control (footnote: % inhibition; text: increased) (multiple dose GFJ): 136.7%
Tmax, % change compared to control (footnote: % inhibition; text: increased) (multiple dose GFJ): 437.5%
AUC0–24 (AUC0–t), % inhibition (decrease) compared to control [8]: 43.2%
AUC0–∞, % inhibition (decrease) compared to control [8]: 35.1%
Cmax, % inhibition (decrease) compared to control [8]: 66.0% and 66.1%
Tmax, % change compared to control (footnote: % inhibition; text: increased) [8]: 437.5%
AUC0–24 (AUC0–t), % inhibition (decrease) compared to control (single dose GFJ): 1.26%
AUC0–∞, % inhibition (decrease) compared to control (single dose GFJ): 17.98%
Cmax, % inhibition (decrease) compared to control (single dose GFJ): 23.1%
T1/2, % change compared to control (footnote: % inhibition) (single dose GFJ): 6.12%
Tmax, % change compared to control (footnote: % inhibition) (single dose GFJ): 0%
Cmax, % inhibition (decrease) compared to control (single dose GFJ, listed as DTZ): 23.14%
T1/2, % change compared to control (footnote: % inhibition) (single dose GFJ, listed as DTZ): no statistically significant change
Tmax, % change compared to control (footnote: % inhibition) (single dose GFJ, listed as DTZ): no change
oral bioavailability [1]: 40–50%
AUC(0-inf) ([2]; in vivo): 51.5 ng·h/mL
Tmax ([2]; plasma): 4.8 min
AUC(0-t) ([2]; plasma, AUC0–24, diltiazem 15 mg/kg p.o with water (control)): 43.6 ng·h/mL
AUC(0-t) ([2]; plasma, AUC0–24, diltiazem 15 mg/kg p.o, multiple dose GFJ): 24.8 ng·h/mL
AUC(0-inf) ([2]; plasma, AUC0–∞, diltiazem 15 mg/kg p.o with water (control)): 62.8 ng·h/mL
AUC(0-inf) ([2]; plasma, AUC0–∞, diltiazem 15 mg/kg p.o, multiple dose GFJ): 33.7 ng·h/mL
Cmax ([2]; plasma, Cmax, diltiazem 15 mg/kg p.o with water (control), n = 6): 121 ± 16.4 ng/mL
half-life ([2]; plasma, T1/2, diltiazem 15 mg/kg p.o with water (control)): 29.4 min
% metabolism of diltiazem ([3]; control rat liver S9, diltiazem alone 12.5 µM, 1 mg protein/ml, 37 °C, 0 min): 0%
% metabolism of diltiazem ([3]; control rat liver S9, diltiazem alone, 5 min): 36.61%
% metabolism of diltiazem ([3]; control rat liver S9, diltiazem alone, 10 min): 49.01%
% metabolism of diltiazem ([3]; control rat liver S9, diltiazem alone, 20 min): 60.15%
% metabolism of diltiazem ([3]; control rat liver S9, diltiazem alone, 30 min): 69.56%
% metabolism of diltiazem ([3]; control rat liver S9, diltiazem alone, 40 min): 77.47%
% metabolism of diltiazem ([3]; control rat liver S9, diltiazem alone, 60 min): 88.91%
% metabolism of diltiazem ([3]; control rat liver S9, diltiazem alone, 60 min, listed as DTZ): 88.9%
% metabolism of diltiazem ([3]; control rat liver S9, in presence of testosterone, 0 min): 0%
% metabolism of diltiazem ([3]; control rat liver S9, in presence of testosterone, 5 min): 9.19%
% metabolism of diltiazem ([3]; control rat liver S9, in presence of testosterone, 10 min): 16.32%
% metabolism of diltiazem ([3]; control rat liver S9, in presence of testosterone, 20 min): 29.91%
% metabolism of diltiazem ([3]; control rat liver S9, in presence of testosterone, 30 min): 35.67%
% metabolism of diltiazem ([3]; control rat liver S9, in presence of testosterone, 40 min): 38.16%
% metabolism of diltiazem ([3]; control rat liver S9, in presence of testosterone, 60 min): 41.25%
% metabolism of diltiazem ([3]; liver S9 from rats treated with GFJ orally for 7 days, 0 min): 0%
% metabolism of diltiazem ([3]; liver S9 from rats treated with GFJ orally for 7 days, 5 min): 12.79%
% metabolism of diltiazem ([3]; liver S9 from rats treated with GFJ orally for 7 days, 10 min): 21.11%
% metabolism of diltiazem ([3]; liver S9 from rats treated with GFJ orally for 7 days, 20 min): 28.49%
% metabolism of diltiazem ([3]; liver S9 from rats treated with GFJ orally for 7 days, 30 min): 31.38%
% metabolism of diltiazem ([3]; liver S9 from rats treated with GFJ orally for 7 days, 40 min): 40.76%
% metabolism of diltiazem ([3]; liver S9 from rats treated with GFJ orally for 7 days, 60 min): 48.26%
% metabolism of diltiazem ([3]; liver S9 from rats treated with GFJ orally for 7 days, 60 min, listed as DTZ): 48.3%
Increase of mean cumulative efflux of diltiazem vs control [4]: 35.79%

CCOC(=O)C1=C(COCCN)NC(C)=C(C(=O)OC)C1c1ccccc1Cl (stereo not drawn) [amlodipine]
increase of Tmax [5]: 115%

COC(=O)C1=C(C)NC(C)=C(C(=O)OC)C1c1ccccc1[N+](=O)[O-] [nifedipine]
reduction of area under the curve ([6]; intraduodenal, GFJ administered concomitantly, ref Mohri et al. 2000): 50%
increase of nifedipine levels ([6]; rats, long-term administration of GFJ, intraduodenally, ref Mohri et al. (2000)): approximately 1.62 times

CC(=O)O[C@H]1C(=O)[C@@]2(C)[C@H]([C@H](OC(=O)c3ccccc3)[C@]3(O)C[C@H](OC(=O)[C@H](O)[C@@H](NC(=O)c4ccccc4)c4ccccc4)C(C)=C1C3(C)C)[C@]1(OC(C)=O)CO[C@@H]1C[C@@H]2O [paclitaxel]
efflux ratio (ER) [7]: 20.8

Source: PMC6052858 (Die Pharmazie, 2009)
